The values that follow come from patent US20240158370A1, “CK1 alpha AND DUAL CK1 alpha / GSPT1 DEGRADING COMPOUNDS” (Innovo Therapeutics, Inc., priority 2022, published 2024).

Where only a bound is given, the exact number is not on record here.

In assay [1] the target is T1, CK1α (Homo sapiens, UniProt P48729+Q96SW2).
T1 construct: CSNK1A1-HiBit KI HEK293(LgBit) Cells; host or cells: HEK293(LgBit) knock-in cells
Briefly: HiBiT degradation assay, CK1α, Procedure A. Format: cell-based. Summed up: (§1)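 Cells in DMEM + 10% FBS were treated with compound in a ten-point dose response from 10 μM to 0.005 μM (0.1% DMSO) for six hours at 37° C. Lysis with Nano-Glo HiBiT detection reagent followed, with luminescence read. DC50 and Ymin came from a 4-parameter fit.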
(The HiBiT peptide binds its large partner to form an active luciferase.)

Assay [2] concerns the target GSPT1 (Homo sapiens, UniProt P15170+Q96SW2). Briefly: HiBiT degradation assay, GSPT1, Procedure A. Format: cell-based. Set-up: HiBit-GSPT1 KI HEK293(LgBit) Cells; host or cells: HEK293(LgBit) knock-in cells. Summed up: as §1

Sequence of GSPT1 (P15170 whole entry): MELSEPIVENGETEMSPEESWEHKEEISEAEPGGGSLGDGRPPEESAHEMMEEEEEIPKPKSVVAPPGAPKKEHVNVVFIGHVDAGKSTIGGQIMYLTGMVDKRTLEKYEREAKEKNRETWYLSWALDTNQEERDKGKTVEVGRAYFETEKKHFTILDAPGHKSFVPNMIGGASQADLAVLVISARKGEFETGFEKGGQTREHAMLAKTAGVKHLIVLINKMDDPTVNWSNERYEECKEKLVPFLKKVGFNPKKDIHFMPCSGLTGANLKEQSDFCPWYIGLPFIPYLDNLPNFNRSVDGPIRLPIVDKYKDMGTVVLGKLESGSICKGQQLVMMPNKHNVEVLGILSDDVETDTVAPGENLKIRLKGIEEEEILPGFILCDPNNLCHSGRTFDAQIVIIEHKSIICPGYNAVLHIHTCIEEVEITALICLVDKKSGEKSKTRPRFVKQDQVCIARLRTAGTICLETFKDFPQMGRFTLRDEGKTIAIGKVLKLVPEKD
Sequence of GSPT1 (Q96SW2 whole entry): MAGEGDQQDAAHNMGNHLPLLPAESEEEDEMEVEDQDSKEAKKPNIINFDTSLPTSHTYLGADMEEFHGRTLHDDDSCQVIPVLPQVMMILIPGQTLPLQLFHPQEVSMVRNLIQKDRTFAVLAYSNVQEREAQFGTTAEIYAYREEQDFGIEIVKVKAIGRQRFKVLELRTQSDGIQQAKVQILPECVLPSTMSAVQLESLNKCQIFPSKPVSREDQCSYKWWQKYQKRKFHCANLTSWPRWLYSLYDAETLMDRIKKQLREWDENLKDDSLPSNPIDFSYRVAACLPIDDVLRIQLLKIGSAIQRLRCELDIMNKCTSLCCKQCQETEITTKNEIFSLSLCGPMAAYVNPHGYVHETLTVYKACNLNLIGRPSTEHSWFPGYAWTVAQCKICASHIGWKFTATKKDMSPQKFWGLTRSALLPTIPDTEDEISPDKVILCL
Sequence of GSPT1 (Q16531 whole entry partner): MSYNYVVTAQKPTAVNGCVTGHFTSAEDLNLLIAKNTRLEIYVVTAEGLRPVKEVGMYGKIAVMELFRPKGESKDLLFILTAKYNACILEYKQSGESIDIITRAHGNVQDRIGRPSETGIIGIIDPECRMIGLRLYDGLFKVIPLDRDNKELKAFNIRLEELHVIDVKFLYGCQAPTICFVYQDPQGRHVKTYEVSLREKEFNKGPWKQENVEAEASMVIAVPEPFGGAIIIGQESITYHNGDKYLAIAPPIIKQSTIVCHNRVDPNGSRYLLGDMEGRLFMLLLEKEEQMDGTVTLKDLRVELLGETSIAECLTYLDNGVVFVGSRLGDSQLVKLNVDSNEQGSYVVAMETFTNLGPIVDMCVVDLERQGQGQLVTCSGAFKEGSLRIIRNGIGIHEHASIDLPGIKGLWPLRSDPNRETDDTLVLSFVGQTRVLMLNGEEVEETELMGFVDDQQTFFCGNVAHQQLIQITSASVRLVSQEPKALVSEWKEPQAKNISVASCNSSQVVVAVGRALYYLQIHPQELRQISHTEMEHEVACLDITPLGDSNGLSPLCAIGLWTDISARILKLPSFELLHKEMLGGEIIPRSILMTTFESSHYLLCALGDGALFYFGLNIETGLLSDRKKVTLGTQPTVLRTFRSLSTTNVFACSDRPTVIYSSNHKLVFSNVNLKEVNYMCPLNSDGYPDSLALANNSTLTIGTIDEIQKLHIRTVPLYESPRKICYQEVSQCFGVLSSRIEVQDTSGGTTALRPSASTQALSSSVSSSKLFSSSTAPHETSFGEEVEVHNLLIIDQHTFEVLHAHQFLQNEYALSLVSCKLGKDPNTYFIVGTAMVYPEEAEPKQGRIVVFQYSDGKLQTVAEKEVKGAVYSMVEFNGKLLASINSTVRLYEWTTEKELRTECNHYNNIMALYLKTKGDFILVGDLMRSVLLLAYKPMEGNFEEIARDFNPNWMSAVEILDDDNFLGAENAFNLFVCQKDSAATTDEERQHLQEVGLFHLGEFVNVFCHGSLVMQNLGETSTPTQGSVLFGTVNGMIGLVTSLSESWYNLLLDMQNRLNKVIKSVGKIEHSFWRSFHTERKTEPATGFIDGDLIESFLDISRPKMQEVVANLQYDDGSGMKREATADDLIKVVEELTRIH
T1 sequence (P48729 whole entry): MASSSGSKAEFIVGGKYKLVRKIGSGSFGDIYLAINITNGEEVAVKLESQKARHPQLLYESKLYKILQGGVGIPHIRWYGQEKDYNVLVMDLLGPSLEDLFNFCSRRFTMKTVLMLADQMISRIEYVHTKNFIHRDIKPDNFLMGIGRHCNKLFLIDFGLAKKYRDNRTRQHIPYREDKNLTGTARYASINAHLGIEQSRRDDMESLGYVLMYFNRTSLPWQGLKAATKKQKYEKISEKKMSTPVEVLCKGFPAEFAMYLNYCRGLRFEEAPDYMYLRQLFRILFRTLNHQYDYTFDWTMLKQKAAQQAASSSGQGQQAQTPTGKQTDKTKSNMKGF
T1 sequence (Q96SW2 whole entry): as the sequence (Q96SW2 whole entry) above
T1 sequence (Q16531 whole entry partner): as the sequence (Q16531 whole entry partner) above

One may read the DC50 as the midpoint of the concentration-degradation curve. On to `Cc1ccc(C)c(-c2c(-c3ccc4c(c3)CN(C3CCC(=O)NC3=O)C4=O)cnn2C)c1` (stereo not drawn) [Example 87], for which, in assay [1] (six hours incubation), the “CK1α Ymin” value is on record as “E (E = >25-75% remaining)” and the half-maximal degradation concentration (DC50) is less than 25 nM. In addition, in assay [2] (six hours incubation), the DC50 is not below 25 nM and the “GSPT1 Ymin” value is reported as “F (F = >75-100% remaining)”.
For `Cn1ncc(-c2ccc3c(c2)CN(C2CCC(=O)NC2=O)C3=O)c1-c1cccc(F)c1` (stereo not drawn) [Example 135], in assay [1] (six hours incubation), the “CK1α Ymin” value is listed as “E (E = >25-75% remaining)” and the DC50 was less than 25 nM. Further, in assay [2] (six hours incubation), the half-maximal degradation concentration (DC50) was not below 25 nM and the “GSPT1 Ymin” value is given as “F (F = >75-100% remaining)”.
With `Cn1cnc(-c2ccc3c(c2)CN(C2CCC(=O)NC2=O)C3=O)c1-c1cc[nH]n1` (stereo not drawn) [Example 504], in assay [1] (six hours), the “CK1α Ymin” value is “D (D = >10- 25% remaining)” and the half-maximal degradation concentration (DC50) is not below 25 nM. Also, in assay [2] (six hours), the DC50 is not below 25 nM and the “GSPT1 Ymin” value is “F (F = >75-100% remaining)”.
In the case of `CN1CCC(c2c(-c3ccc4c(c3)CN(C3CCC(=O)NC3=O)C4=O)cnn2C)CC1` (stereo not drawn) [Example 590], in assay [1] (six hours), the “CK1α Ymin” value is reported as “E (E = >25-75% remaining)” and the DC50 is not below 25 nM. In addition, in assay [2] (six hours), the half-maximal degradation concentration (DC50) is not below 25 nM and the “GSPT1 Ymin” value is “F (F = >75-100% remaining)”.
In the case of `Cn1cc(-c2ccc3c(c2)CN(C2CCC(=O)NC2=O)C3=O)nc1-c1cccc(OC2CC2)c1` (stereo not drawn) [Example 580], in assay [1] (six hours), the “CK1α Ymin” value was “C (C = 0-10% remaining)” and the half-maximal degradation concentration (DC50) is less than 25 nM. In assay [2] (six hours), the half-maximal degradation concentration (DC50) was not below 25 nM and the “GSPT1 Ymin” value is on record as “F (F = >75-100% remaining)”.
For `Cn1cnc(-c2ccc3c(c2)CN(C2CCC(=O)NC2=O)C3=O)c1-c1ccc2[nH]ccc2c1` (stereo not drawn) [Example 346], in assay [1] (six hours incubation), the “CK1α Ymin” value is “D (D = >10- 25% remaining)” and the DC50 was less than 25 nM. In assay [2] (six hours incubation), the DC50 was not below 25 nM and the “GSPT1 Ymin” value is listed as “F (F = >75-100% remaining)”.
As for `Cn1cnc(-c2ccc3c(c2)CN(C2CCC(=O)NC2=O)C3=O)c1-c1ccc(O)cc1` (stereo not drawn) [Example 163], in assay [1] (six hours incubation), the “CK1α Ymin” value is listed as “C (C = 0-10% remaining)” and the DC50 was less than 25 nM. Further, in assay [2] (six hours incubation), the DC50 is not below 25 nM and the “GSPT1 Ymin” value is “E (E = >25-75% remaining)”.
The like results for `Cn1cnc(-c2ccc3c(c2)CN(C2CCC(=O)NC2=O)C3=O)c1-c1cccc(F)c1F` (stereo not drawn) [Example 242] were, in that order, “D (D = >10- 25% remaining)”, less than 25 nM, less than 25 nM and “F (F = >75-100% remaining)”.
Consider `Cc1cc(-c2c(-c3ccc4c(c3)CN(C3CCC(=O)NC3=O)C4=O)ncn2C)c(C)s1` (stereo not drawn) [Example 241], for which, in assay [1] (six hours incubation), the “CK1α Ymin” value was “D (D = >10- 25% remaining)” and the DC50 is less than 25 nM. Further, in assay [2] (six hours incubation), the half-maximal degradation concentration (DC50) was not below 25 nM and the “GSPT1 Ymin” value was “F (F = >75-100% remaining)”.
With `Cc1n[nH]c(-c2ccccc2)c1-c1ccc2c(c1)CN(C1CCC(=O)NC1=O)C2=O` (stereo not drawn) [Example 30, 3-(5-(3-Methyl-5-phenyl-1H-pyrazol-4-yl)-1-oxoisoindolin-2-yl) piperidine-2,6-dione], in assay [1] (six hours incubation), the “CK1α Ymin” value is given as “E (E = >25-75% remaining)” and the DC50 was not below 25 nM. Besides, in assay [2] (six hours incubation), the DC50 is not below 25 nM and the “GSPT1 Ymin” value is recorded as “F (F = >75-100% remaining)”.
Consider `Cc1ccc(-c2c(-c3ccc4c(c3)CN(C3CCC(=O)NC3=O)C4=O)ncn2C)s1` (stereo not drawn) [Example 229], for which, in assay [1] (six hours incubation), the “CK1α Ymin” value was “C (C = 0-10% remaining)” and the half-maximal degradation concentration (DC50) was less than 25 nM. Moreover, in assay [2] (six hours incubation), the DC50 was less than 25 nM and the “GSPT1 Ymin” value is given as “E (E = >25-75% remaining)”.
On to `Cn1cnc(-c2ccc3c(c2)CN(C2CCC(=O)NC2=O)C3=O)c1-c1cc(Cl)ccc1F` (stereo not drawn) [Example 261], for which, in assay [1] (six hours incubation), the “CK1α Ymin” value was “E (E = >25-75% remaining)” and the DC50 was less than 25 nM. Besides, in assay [2] (six hours incubation), the DC50 was not below 25 nM and the “GSPT1 Ymin” value is reported as “F (F = >75-100% remaining)”.
For the compound `[2H]C([2H])([2H])n1cc(-c2ccc3c(c2)CN(C2CCC(=O)NC2=O)C3=O)nc1-c1ccccc1` (stereo not drawn) [Example 437, 3-(5-(1-(methyl-d3)-2-phenyl-1H-imidazol-4-yl)-1-oxoisoindolin-2-yl)piperidine-2,6-dione], in assay [1] (six hours), the “CK1α Ymin” value is recorded as “C (C = 0-10% remaining)” and the DC50 is less than 25 nM. In assay [2] (six hours), the DC50 was less than 25 nM and the “GSPT1 Ymin” value was “F (F = >75-100% remaining)”.
On to `COc1ccc(Cl)cc1-c1c(-c2ccc3c(c2)CN(C2CCC(=O)NC2=O)C3=O)ncn1C` (stereo not drawn) [Example 274], for which, in assay [1] (six hours incubation), the “CK1α Ymin” value is reported as “E (E = >25-75% remaining)” and the DC50 is less than 25 nM. For the same compound, in assay [2] (six hours incubation), the DC50 is not below 25 nM and the “GSPT1 Ymin” value was “F (F = >75-100% remaining)”.
As to `Cn1cnc(-c2ccc3c(c2)CN(C2CCC(=O)NC2=O)C3=O)c1-c1ccc(C(F)F)cc1` (stereo not drawn) [Example 203], in assay [1] (six hours incubation), the “CK1α Ymin” value is on record as “D (D = >10- 25% remaining)” and the DC50 was less than 25 nM. Also, in assay [2] (six hours incubation), the DC50 is not below 25 nM and the “GSPT1 Ymin” value was “E (E = >25-75% remaining)”.
For `Cn1cnc(-c2ccc3c(c2)CN(C2CCC(=O)NC2=O)C3=O)c1-c1ccc(C(=O)N2CCOCC2)cc1` (stereo not drawn) [Example 314], in assay [1] (six hours incubation), the “CK1α Ymin” value is “E (E = >25-75% remaining)” and the DC50 is not below 25 nM. In assay [2] (six hours incubation), the 50% degradation concentration (DC50) is not below 25 nM and the “GSPT1 Ymin” value is reported as “F (F = >75-100% remaining)”.
On to `Cn1ncc(-c2ccc3c(c2)CN(C2CCC(=O)NC2=O)C3=O)c1-c1ccccc1C(F)(F)F` (stereo not drawn) [Example 71], for which, in assay [1] (six hours incubation), the “CK1α Ymin” value is “F (F = >75-100% remaining)” and the DC50 was less than 25 nM. Further, in assay [2] (six hours incubation), the DC50 is not below 25 nM and the “GSPT1 Ymin” value is on record as “F (F = >75-100% remaining)”.
Consider `CC1CCN(c2nc(-c3ccc4c(c3)CN(C3CCC(=O)NC3=O)C4=O)nn2C)CC1` (stereo not drawn) [Example 600, 3-(5-(1-methyl-5-(4-methylpiperidin-1-yl)-1H-1,2,4-triazol-3-yl)-1-oxoisoindolin-2-yl)piperidine-2,6-dione], for which, in assay [1] (six hours), the “CK1α Ymin” value was “D (D = >10- 25% remaining)” and the DC50 is less than 25 nM. Besides, in assay [2] (six hours), the DC50 is not below 25 nM and the “GSPT1 Ymin” value is on record as “F (F = >75-100% remaining)”.
`Cn1cnc(-c2ccc3c(c2)CN(C2CCC(=O)NC2=O)C3=O)c1-c1cc(Cl)ccc1Cl` (stereo not drawn) [Example 285]: in assay [1] (six hours incubation), the “CK1α Ymin” value was “E (E = >25-75% remaining)” and the DC50 is less than 25 nM. In assay [2] (six hours incubation), the DC50 is less than 25 nM and the “GSPT1 Ymin” value is “F (F = >75-100% remaining)”.
In the case of `Cn1ncc(-c2ccc3c(c2)CN(C2CCC(=O)NC2=O)C3=O)c1-c1cncnc1` (stereo not drawn) [Example 362], in assay [1] (six hours incubation), the “CK1α Ymin” value is on record as “E (E = >25-75% remaining)” and the 50% degradation concentration (DC50) was less than 25 nM. Also, in assay [2] (six hours incubation), the half-maximal degradation concentration (DC50) was not below 25 nM and the “GSPT1 Ymin” value is recorded as “F (F = >75-100% remaining)”.
For `CN1CC=C(c2c(-c3ccc4c(c3)CN(C3CCC(=O)NC3=O)C4=O)ncn2C)CC1` (stereo not drawn) [Example 596], in assay [1] (six hours), the “CK1α Ymin” value is listed as “C (C = 0-10% remaining)” and the DC50 is not below 25 nM. Besides, in assay [2] (six hours), the DC50 was not below 25 nM and the “GSPT1 Ymin” value is “F (F = >75-100% remaining)”.
